Experimental data as given in PubChem BioAssay (NCI).
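Step 1: Grow cells in 96-well plates. Step 2: Expose to compound for 48 hours at 5 concentrations. Step 3: Interpolate endpoints linearly; if unreached, use highest concentration. GI50 marks 50% less growth. Definition used: TGI = concentration required for complete inhibition of growth.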

Experiments:
Assay in all cases: NCI anticancer screen, dose series, 48 h
SR leukemia = test system: SR leukemia
A498 renal = test system: A498 renal
HL-60(TB) leukemia = test system: HL-60(TB) leukemia
M14 melanoma = test system: M14 melanoma
ACHN renal = test system: ACHN renal
A549 NSCLC = test system: A549 NSCLC
OVCAR-4 ovarian = test system: OVCAR-4 ovarian
MOLT-4 leukemia = test system: MOLT-4 leukemia
SF-539 CNS = test system: SF-539 CNS
786-0 renal = test system: 786-0 renal

Structure (SMILES) | GI50 (SR leukemia) [nM] | TGI (SR leukemia) [µM] | GI50 (A498 renal) [nM] | TGI (A498 renal) [µM] | GI50 (HL-60(TB) leukemia) [nM] | TGI (HL-60(TB) leukemia) [µM] | GI50 (M14 melanoma) [nM] | TGI (M14 melanoma) [µM] | GI50 (ACHN renal) [nM] | TGI (ACHN renal) [µM] | GI50 (A549 NSCLC) [nM] | TGI (A549 NSCLC) [µM] | GI50 (OVCAR-4 ovarian) [nM] | TGI (OVCAR-4 ovarian) [µM] | GI50 (MOLT-4 leukemia) [nM] | TGI (MOLT-4 leukemia) [µM] | GI50 (SF-539 CNS) [nM] | TGI (SF-539 CNS) [µM] | GI50 (786-0 renal) [nM] | TGI (786-0 renal) [µM]
CCc1ccc(Oc2c(-c3ccc(OCc4ccc(Cl)cc4)cc3O)n[nH]c2C(F)(F)F)cc1 | 2780 | 6.92 | 1870 | 3.82 | 2410 | 4.86 | 1880 | 3.71 | 1890 | 4 | 2020 | 4.22 | 1620 | 3.31 | 2460 | 5.64 | 1960 | 4.41 | 1720 | 3.27
Fc1ccc(-c2c(-c3ccncc3)nc3n2CCS3)cc1 | > 25000 | > 25 | > 15600 | > 25 | > 25000 | > 25 | > 25000 | > 25 | > 25000 | > 25 | > 25000 | > 25 | > 25000 | > 25 | > 25000 | > 25 | > 25000 | > 25 | > 25000 | > 25
CC(C)C[C@H](NC(=O)CNC(=O)c1cc(Cl)ccc1Cl)B(O)O | < 15.2 | 0.385 | < 15.8 | 0.0336 | < 16.7 | 0.212 | 20.2 |  | < 18.2 | 15.8 | 46 | 7.6 | 61 | 5.45 | 18.7 | 0.0797 | < 12.5 | 0.0258 | 27.8 | 0.814
CCc1nc(N)nc(N)c1-c1ccc(Cl)c([N+](=O)[O-])c1 |  | > 26.5 |  | > 96 |  | > 51.5 |  | 98.8 |  | > 100 |  | > 100 |  | > 100 |  | > 65.2 |  | 51.4 |  | > 100
O=C(O)CSc1n[nH]c(=O)[nH]c1=O |  | > 100 |  | > 100 |  | > 100 |  | > 100 |  | > 100 |  | > 100 |  | > 100 |  | > 100 |  | > 100 |  | > 100
O=c1oc2ccc(I)cc2c(=O)n1-c1ccc(Br)cc1F | 605 | > 34.1 | 225 | 0.697 | 588 | 3.74 | 725 | 4.99 | 751 | 10.7 | 2820 | > 39.7 | 1120 | 16.5 | 1590 | 5.18 | 632 | 4.99 | 2420 | 7.12
O=C(/C=C\c1ccccc1O)c1ccc(O)cc1O |  | > 100 |  | > 100 |  | > 100 |  | > 100 |  | > 100 |  | > 100 |  | > 100 |  | > 100 |  | > 100 |  | > 100
Cc1ccc(C)c(N2C(=O)C(=O)C(c3nc4ccccc4s3)/C(=N/N)C2=O)c1 (centres undefined) |  | > 100 |  | > 22.6 |  | > 100 |  | > 100 |  | > 100 |  | > 100 |  | > 100 |  | > 100 |  | > 100 |  | > 100
CNC(=O)c1ccc(N2C(=S)N(c3cnc(C#N)c(C(F)(F)F)c3)C(=O)C23CCC3)cc1F | 51500 | > 100 | > 53200 | > 100 | 63900 | > 100 | > 100000 | > 100 | > 100000 | > 100 | > 100000 | > 100 | > 79200 | > 100 | 61900 | > 100 | > 100000 | > 100 | > 100000 | > 100
Cc1c(-c2cnccn2)ssc1=S |  | > 100 |  | 59.7 |  | > 77.4 |  | > 100 |  | > 100 |  | > 100 |  | > 100 |  | > 100 |  | > 100 |  | > 77.4
CCC[C@H]1O[C@@H]2CC(=O)O[C@@H]2C2=C1C(=O)C=CC2=O |  | 49.8 |  | > 70.3 |  | 37.7 |  | 32.8 |  | 25.7 |  | > 58.1 |  | 29.9 |  | 8.98 |  | 33.6 |  | 30.3
Cc1c(C)c2ccc3oc4ccccc4c3c2oc1=O |  | > 100 |  | > 100 |  | > 100 |  | > 100 |  | > 100 |  | > 100 |  | > 100 |  | > 100 |  | > 100 |  | > 100
Oc1c(Cl)cc(Cl)c(Cl)c1CNCCNCc1c(O)c(Cl)cc(Cl)c1Cl | 622 | > 50 | 3030 | 17.3 | 630 | 2.84 | 1220 | 26 | 549 | 7.22 | 1110 | 8.21 | 410 | 7.87 | 561 | > 50 | 439 | 5.32 | 1480 | 8.43
COc1cc2c(cc1OC(C)C)[C@H](c1ccc(Cl)cc1)N(c1ccc(N(C)CC3CCC(N4CCN(C)C(=O)C4)CC3)cc1)C(=O)C2 (some centres undefined) | 123 | 1.97 | 1380 | 6.49 | 2190 | 5.87 | 2720 | 7.86 | 320 | 3.62 | 537 | 5.24 | 2990 | 9.85 | 363 | 5.77 | 1640 | 3.21 | 2850 | 8.73
Cc1ccc(O)c(NC(=O)c2cccc(Nc3ccnc(C(F)(F)F)c3)c2)c1 | 1020 | 16.4 | 5000 | 20.5 | 592 | 11.1 | 7550 | 22.3 | 9650 | 48.8 | 5090 | 28 | 2970 | 31.2 | 2020 | 8.15 | 12500 | 25.7 | 8220 | 51.5
Cc1onc(-c2ccccc2)c1C(=O)N/N=C/c1cc(Cl)cc(Cl)c1O | 3740 | 25.1 | 15000 | 58.2 | 2610 | 7.32 | 3740 | 46.3 | 2670 | > 100 | 5070 | > 100 | 2070 | > 100 | 3530 | 22.9 | 2650 | 11.6 | 5010 | 50.7
CN(Cc1ccccc1)Cn1ccnc1 |  | > 66.8 |  | > 100 |  | > 100 |  | 39.6 |  | > 100 |  | > 100 |  | > 100 |  | > 100 |  | > 100 |  | > 100
O=C1C=C(Nc2ccc(Cl)cc2Cl)c2ccccc2C1=O |  | 74.9 |  | > 100 |  | 92.5 |  | 57.8 |  | > 100 |  | > 100 |  | > 100 |  | > 100 |  | > 100 |  | > 100
O=C1N[C@@H]2[C@@H](O)[C@@H](O)[C@H](O)C[C@H]2c2cc3c(c(O)c21)OCCO3 | 245 | 27.4 | 392 | 1.58 | 190 | 0.599 | 246 | 1.04 | 306 | 1.46 | 354 | 5.58 | 217 | 0.838 | 193 | 3.16 | 254 | 0.928 | 293 | 2.08
NS(=O)(=O)OC[C@H]1C[C@@H](Nc2ccnc3cc(-c4cccc(SC(F)(F)F)c4)nn23)[C@H](O)[C@@H]1O | 31.6 | 1.05 | 13 | 0.0262 | 33.2 | 0.15 | 42.9 | 0.278 | 176 | 0.36 | 206 | 0.445 | 27.4 | 0.11 | 166 | 0.588 | 14.3 | 0.037 | 47.2 | 0.19
